Reference: paper PMC3706088 (Journal of medicinal chemistry, 2013)
pEC50: −log10 of the molar value. Entries after “also recorded” stand apart in the source; their conditions may differ. Where two headings read alike, the source gives them in different places.

Legend:
[1] = test system: Female Sprague-Dawley rats; assay: Hypothermia: body temperature in rats over 6 h after injection; settings: rat, up to a dose of 10.0 mg/kg s.c.
[2] = molecular target: CB1-E cannabinoid receptors (Homo sapiens, UniProt P21554); assay: β-arrestin2 translocation assay, U2OS cells expressing CB1-E and β-arrestin2-GFP; settings: for β-arrestin2 translocation efficacy, 95% confidence interval: normalized to the response of WIN55212-2 set to 1, N = 3; for in vitro functional characterization, CB1 profile: conclusion of the in vitro functional assays
Sequence of CB1-E cannabinoid receptors (P21554 1-415): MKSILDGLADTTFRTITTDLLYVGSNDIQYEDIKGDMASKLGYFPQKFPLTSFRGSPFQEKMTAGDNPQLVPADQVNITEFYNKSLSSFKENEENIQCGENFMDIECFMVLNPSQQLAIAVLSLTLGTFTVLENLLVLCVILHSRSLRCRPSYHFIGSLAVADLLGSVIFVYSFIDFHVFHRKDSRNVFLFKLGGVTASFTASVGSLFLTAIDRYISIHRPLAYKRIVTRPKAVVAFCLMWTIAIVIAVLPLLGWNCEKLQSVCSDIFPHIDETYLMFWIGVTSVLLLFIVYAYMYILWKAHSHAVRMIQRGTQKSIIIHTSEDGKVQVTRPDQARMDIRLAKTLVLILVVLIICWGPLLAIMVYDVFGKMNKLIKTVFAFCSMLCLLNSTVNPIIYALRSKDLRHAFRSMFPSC
Sequence of CB1-E cannabinoid receptors (P25103 309-407 partner): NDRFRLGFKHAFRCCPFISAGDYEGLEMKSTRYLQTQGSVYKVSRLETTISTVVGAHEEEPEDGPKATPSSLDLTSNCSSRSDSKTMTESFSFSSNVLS

[3] = test system: Female Sprague-Dawley rats; assay: Antinociception: tail-flick procedure in rats over 6 h after injection; settings: rat, up to doses of 10.0 mg/kg s.c.
rCB1 [4] = molecular target: T1, rCB1 (Rattus norvegicus, UniProt P20272); format: cell-based; settings: for functional profile in cAMP assay: CB1
T1 sequence (P20272 whole entry): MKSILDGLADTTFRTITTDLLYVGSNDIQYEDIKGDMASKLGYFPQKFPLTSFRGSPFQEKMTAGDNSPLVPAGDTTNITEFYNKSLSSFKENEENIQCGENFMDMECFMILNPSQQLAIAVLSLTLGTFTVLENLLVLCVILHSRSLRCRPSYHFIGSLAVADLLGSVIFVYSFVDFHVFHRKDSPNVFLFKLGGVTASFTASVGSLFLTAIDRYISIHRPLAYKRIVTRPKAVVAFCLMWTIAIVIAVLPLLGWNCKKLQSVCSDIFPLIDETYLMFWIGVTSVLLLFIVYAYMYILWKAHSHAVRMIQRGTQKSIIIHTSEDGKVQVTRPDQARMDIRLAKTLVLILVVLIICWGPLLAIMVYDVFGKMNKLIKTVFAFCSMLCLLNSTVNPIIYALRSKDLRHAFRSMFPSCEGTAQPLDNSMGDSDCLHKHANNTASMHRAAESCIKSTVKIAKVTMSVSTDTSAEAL

mCB2 = mCB2 (Mus musculus, UniProt P47936); assay: Radioligand competition binding with [3H]CP-55,940, mouse spleen membranes; settings: from Ki values
Sequence of mCB2 (P47936 whole entry): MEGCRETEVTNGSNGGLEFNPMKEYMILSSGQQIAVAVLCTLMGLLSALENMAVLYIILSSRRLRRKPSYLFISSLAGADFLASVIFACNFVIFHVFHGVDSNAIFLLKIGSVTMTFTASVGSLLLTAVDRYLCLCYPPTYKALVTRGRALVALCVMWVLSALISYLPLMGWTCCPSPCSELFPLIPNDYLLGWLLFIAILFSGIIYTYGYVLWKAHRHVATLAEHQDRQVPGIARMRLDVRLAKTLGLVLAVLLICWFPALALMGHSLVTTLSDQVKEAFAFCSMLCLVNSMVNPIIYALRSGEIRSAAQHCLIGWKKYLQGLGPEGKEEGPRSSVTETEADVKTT

hCB2 = hCB2 (Homo sapiens, UniProt P34972); format: binding; settings: from Ki values
Sequence of hCB2 (P34972 whole entry): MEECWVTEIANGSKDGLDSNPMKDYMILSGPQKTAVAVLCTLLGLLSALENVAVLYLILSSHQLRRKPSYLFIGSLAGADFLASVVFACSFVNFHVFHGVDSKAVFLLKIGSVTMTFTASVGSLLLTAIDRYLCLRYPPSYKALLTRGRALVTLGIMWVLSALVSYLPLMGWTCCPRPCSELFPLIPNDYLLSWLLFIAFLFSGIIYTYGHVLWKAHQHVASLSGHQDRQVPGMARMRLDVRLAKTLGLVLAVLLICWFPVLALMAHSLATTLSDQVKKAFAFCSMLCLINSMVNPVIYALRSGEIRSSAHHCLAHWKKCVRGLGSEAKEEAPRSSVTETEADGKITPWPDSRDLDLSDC

rCB1 [5] = molecular target: T1, rCB1; assay: Radioligand competition binding with [3H]CP-55,940, rat brain membranes; settings: relative to 11; across rCB1, mCB2 and hCB2

CC1=CC[C@@H]2[C@@H](C1)c1c(O)cc(C34CC5CC(CC(C5)C3)C4)cc1OC2(C)C [Compound 1]
hypothermic effects [1]: did not have hypothermic effects | β-arrestin2 translocation efficacy, 95% confidence interval [2]: 0.43–0.81 | antinociceptive effects (tail-flick) [3]: neither had significant antinociceptive effects

CC1(C)Oc2cc(C34CC5CC(CC(C5)C3)C4)cc(O)c2[C@@H]2C[C@H](CO)CC[C@H]21 [Compound 11, (6aR,9R,10aR)-3-(Adamantan-1-yl)-9-(hydroxymethyl)-6,6-dimethyl-6a,7,8,9,10,10a-hexahydro-6H-benzo[c]chromen-1-ol]
in vitro functional characterization, CB1 profile [2]: high efficacy CB1 agonists | β-arrestin2 translocation efficacy, 95% confidence interval [2]: 0.65–0.92 | pEC50 (rCB1 [4]): 8.89 | functional profile in cAMP assay (rCB1 [4]): potent CB1 agonist | functional profile in cAMP assay (rCB1 [4]; listed as AM4054): agonist

CC1(C)Oc2cc(C34CC5CC(CC(C5)C3)C4)cc(O)c2[C@@H]2C[C@H](CCO)CC[C@H]21 [Compound 16, (6aR,9R,10aR)-3-(Adamantan-1-yl)-9-(2-hydroxyethyl)-6,6-dimethyl-6a,7,8,9,10,10a-hexahydro-6H-benzo[c]chromen-1-ol]
CB1 selectivity over mCB2 (mCB2): ~ 4 fold | CB1 selectivity over hCB2 (hCB2): ~ 4 fold

CC1(C)Oc2cc(C34CC5CC(CC(C5)C3)C4)cc(O)c2[C@@H]2C[C@@H](CO)CC[C@H]21 [Compound 17, (6aR,9S,10aR)-3-(Adamantan-1-yl)-9-(hydroxymethyl)-6,6-dimethyl-6a,7,8,9,10,10a-hexahydro-6H-benzo[c]chromen-1-ol]
lower affinities than β-hydroxymethyl isomer 11 (rCB1 [5]): 6- to 11 fold

CC1(C)Oc2cc(C34CC5CC(CC(C5)C3)C4)cc(O)c2[C@@H]2CC(CO)=CC[C@H]21 [Compound 22, (6aR,10aR)-3-(Adamantan-1-yl)-9-(hydroxymethyl)-6,6-dimethyl-6a, 7, 10, 10a-tetrahydro-6H-benzo[c]chromen-1-ol]
in vitro functional characterization, CB1 profile [2]: high efficacy CB1 agonists | β-arrestin2 translocation efficacy, 95% confidence interval [2]: 0.54–0.80

CC1(C)Oc2cc(C34CC5CC(CC(C5)C3)C4)cc(O)c2-c2cc(CO)ccc21 [Compound 24]
β-arrestin2 translocation efficacy, 95% confidence interval [2]: 0.68–0.94 | pEC50 (rCB1 [4]): 8.10 | functional profile in cAMP assay (rCB1 [4]): CB1 partial agonist; also recorded: partial CB1 agonist | functional profile in cAMP assay (rCB1 [4]; listed as AM4089): partial agonist | antinociceptive effects (tail-flick) [3]: neither had significant antinociceptive effects | CB1 selectivity over mCB2 (mCB2): 15 fold
